Consider one molecule from patent US4080471A, “Use of substituted isopropylaminopropanols for inducing inotropic effects of the human heart” (priority 1976, dated 1978).

What is called ED50 is the dose that gives a 50% effect, or the effect in half of the subjects.

The target of series [1] is T1, beta-receptors of the blood vessels (Felis catus, UniProt Q9TST5).
T1 construct: from tissue; host or cells: hind-limb vascular bed of the anaesthetized cat in vivo (constant-flow perfusion, reserpine-pretreated)
The series can be described thus: Vasodilatating effect (hind limb perfusion pressure) on anesthetized cat pretreated with reserpine. In kind it is in vivo. The following applies: cat, iv, read-out: ED50 Vasodilation. The method, then: Chronotropic (heart frequency) and vasodilatating effects:
When the cats had been anaesthetized with Mebumal® 30 mg/kg bodyweight i.p., an artificial air respiration was started. The two vagus nerves were cut and the blood passing through a femoral artery was fed via a catheter and a pump back to the distal part of the vessel. Parallelly, a pressure transducer was connected by which the perfusion pressure was registered. At a perfusion with a constant flow, the perfusion pressure is directly proportional to the peripheral resistance of the vascular bed of the hind limb. Blood circulation in the foot was interrupted with a ligature. Heart frequency was registered with a cardiotachometer triggered by the ECG. The substances were administered intravenously in increasing doses and the dose-response curves of the heart frequency and the vasodilatation were constructed.
Further, the dose ratios (ED50 for vasodilatation/ED50 for heart frequency) are calculated. A dose ratio >1 indicates a heart selective effect.

Another series concerns heart. Description: Effect on heart chronotropy and inotropy of a conscious dog. The source says:
During anesthesia a catheter was introduced in the aorta, an electromagnetic flow probe was placed around the ascending aorta, and induction coils were placed diametrically on the inside of the left ventricle. The experiments were started about 2 weeks after the incision, when the dog had recovered completely.
When the dog was resting, the arterial blood pressure, the flow in the aorta, the maximum flow acceleration in the aorta (maximum dF/dt), heart frequency, the diameter of the left ventricle, and ECG were registered. The effects of compounds I and II were registered at 10, 20, and 30 minutes after administration. […] The compounds were given intravenously in the following doses. […] In order to eliminate vagal influence on the heart the dog was pretreated with methyl scopolamine 0.012 mg/kg bodyweight intramuscularily 20 minutes before the administration of the compounds. From the data giving the diameter of the left ventricle, the end diastolic volume was calculated according to E. W. Hawthorne. Mean ejection rate (ml/sec.) was calculated by dividing the stroke volume with the ejection time. […] The values given are the percentage changes after administration when the heart frequency has increased 10 beats per minute, values interpolated. […] In order to compare the inotropic effects of ouabain with those of the other compounds, the heart was stimulated in these experiments by electric pacing to a frequency which was 10 beats/minute above that registered before administration.
In order to investigate the absorption and duration of the effect, compounds I and II were given orally in an amount of 100 μg/kg bodyweight.

[2] abbreviates: change i.v. at heart frequency +10 beats/min, interpolated, ouabain 30 μg/kg i.v., paced.

Entries after “also recorded” stand apart in the source; their conditions may differ.

T1 sequence (Q9TST5 whole entry, the tested form may be a part): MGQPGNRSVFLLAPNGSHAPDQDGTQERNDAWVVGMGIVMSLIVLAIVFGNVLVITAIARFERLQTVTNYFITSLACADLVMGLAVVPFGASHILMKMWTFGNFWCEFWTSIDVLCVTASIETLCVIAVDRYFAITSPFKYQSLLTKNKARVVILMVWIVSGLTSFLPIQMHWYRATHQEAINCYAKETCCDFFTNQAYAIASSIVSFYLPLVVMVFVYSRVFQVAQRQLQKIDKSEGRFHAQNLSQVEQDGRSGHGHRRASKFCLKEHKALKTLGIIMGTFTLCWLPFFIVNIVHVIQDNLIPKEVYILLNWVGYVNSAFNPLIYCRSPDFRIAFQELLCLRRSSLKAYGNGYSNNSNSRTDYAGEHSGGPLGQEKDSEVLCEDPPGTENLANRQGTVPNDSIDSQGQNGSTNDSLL

As for `CC(C)NCC(O)COc1ccc(O)cc1` (stereo not drawn) [Compound I, 1-isopropylamino-3-(p-hydroxyphenoxy)-propanol-2], the ED50 in series [1] is more than 1 mg/kg. The “time of maximum effect, oral” value in the series on heart (100 μg/kg bodyweight orally) amounted to 30 min. Besides, in the series with heart (change i.v. at heart frequency +10 beats/min, interpolated, calculated from left ventricle diameter, ouabain 30 μg/kg i.v., paced), the Enddiastolic volume is on record as -9%. In addition, in the series with heart (change i.v. at heart frequency +10 beats/min, interpolated, methyl scopolamine pretreated, ouabain 30 μg/kg i.v., paced), the Stroke volume is 5%. Besides, in the series on heart (setting [2]), the “Mean arterial blood pressure” value was determined as 0 mm Hg and the Peak aortic flow is reported as 22%. For the same molecule, the Mean ejection rate with heart (change i.v. at heart frequency +10 beats/min, interpolated, stroke volume / ejection time, ouabain 30 μg/kg i.v., paced) is 13%. In addition, the side effects entry with heart (conscious dog, I and II 10 and 20 μg/kg, ouabain 30 μg/kg i.v.) was “No side effect was observed”. In addition, the “contractility / inotropic effect in conscious dog (in words)” value with heart (i.v.) was “clear inotropic effect without any significant increase of the heart frequency; also recorded: increases the contractility of the left ventricle”. For the same molecule, the “Max. dF/dt” value with heart (maximum flow acceleration in aorta, change i.v. at heart frequency +10 beats/min, interpolated, ouabain 30 μg/kg i.v., paced) came to 43%. In addition, in the series on heart (oral, 100 μg/kg bodyweight), the “oral effect (in words)” value was “good inotropic effect when administered perorally and an acceptable duration of action; also recorded: comparable with those obtained after intravenous administration of 20 μg/kg bodyweight”. In addition, the “positive inotropic effect compared with ouabain (in words)” value in the series on heart (versus relatively high dose of ouabain) is “quite comparable to the effect of a high dose of ouabain; also recorded: comparable to the effect of the relatively high dose of ouabain”.
